Results from US11236122B2, “Triterpene amine derivatives” (DFH THERAPEUTICS, priority 2018, dated 2022).
Where a name gives a salt, the structure may show the parent alone.

Assays:
WT pNL4-3 in MT-4 cells = test: Antiviral assay in MT-4 cells (RT readout), WT NL4-3; assay type: cell-based, HIV-1; conditions: Human immunodeficiency virus 1, NL43, MT4, 96 h, read-out: Antiviral Assay IC50 (nM) NL4-3
Description: (§1) Cell culture, plasmids and transfections. The MT-4 T-cell line was maintained in RPMI-1640 medium supplemented with 10% (vol/vol) fetal bovine serum (FBS), 2 mM glutamine, 100 U/mL penicillin and 100 μg/mL streptomycin at 37° C. in a humidified 5% CO2 atmosphere. HeLa and 293T cells were maintained in Dulbecco's modified Eagle's medium (DMEM) supplemented with 5% (vol/vol) FBS, 2 mM glutamine, 100 U/mL penicillin and 100 μg/mL streptomycin. Molecular clones used in this study were WT pNL4-3 and the derivative encoding a Val-to-Ala mutation at SP1 residue 7, referred to as SP1-V7A. The MT-4 T-cell line was transfected the DEAE/dextran procedure; HeLa and 293T cells were transfected with linear polyethylenimine (L-PEI) or Lipofectamine 2000 (Invitrogen) as recommended by the supplier.
(§2) Antiviral assays. To produce HIV-1 stocks, 293T cells were transfected with WT pNL4-3 or the SP1-V7A derivative and culture supernatants were collected 24 h post transfection. RT-normalized virus supernatants were used to infect MT-4 cells at room temperature for 30 min. Cells were then cultured in the presence of serial dilutions of compounds. […] The IC50s in primary peripheral blood mononuclear cells (PBMCs) were calculated with a multi-clade panel of HIV-1 isolates by Southern Research Institute (Frederick, Md.). […]

[1] = system: pNL4-3 SP1-V7A in MT-4 cells; test: Antiviral assay in MT-4 cells (RT readout), SP1-V7A; assay type: cell-based, HIV-1; conditions: Human immunodeficiency virus 1, MT4, 96 h, read-out: Antiviral Assay IC50 (nM) SP1 V7A
Description: as §1, §2

WT pNL4-3 = test: CA-SP1 accumulation assay, WT NL4-3; assay type: cell-based, HIV-1; conditions: 100 nM compound, HeLa or 293T cells
In short: (§3)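 HeLa or 293T cells transfected with proviral clone, maturation inhibitors present through transfection and labeling; at 24 h, [^35S]Met/Cys labeling 2-3 h. Virions pelleted by ultracentrifugation, lysed, CA and CA-SP1 resolved by SDS-PAGE and quantified by phosphorimaging.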

pNL4-3 SP1-V7A = test: CA-SP1 accumulation assay, SP1-V7A derivative; assay type: cell-based, HIV-1; conditions: 100 nM compound, HeLa or 293T cells
In short: as §3

[2] = Cytotoxicity assay CellTiter-Blue, MT-4; assay type: cell-based; conditions: human; MT-4 cells, 4 to 8 days; mean ± SEM, three experiments
Description: (§4) Cytotoxicity assays. Cytotoxicity was measured with CellTiter-Blue® Cell Viability Assay according to the manufacturer's protocol (Promega). Two cell lines, MT-4 and HeLa, were used in this assay. Cells were incubated with serial dilution of compounds at 37° C. for 4 to 8 days and subjected to CellTiter-Blue Reagent. The fluorescent signal was measured at 560 nm Ex/590 nm Em by a plate reader (TECAN, Infinite® M1000 PRO). The 50% cytotoxic concentrations (CC50s) were defined as compound concentrations at which the fluorescent signals were reduced by 50%/relative to the no-inhibitor (DMSO only) controls using GraphPad Prism 6 software and are reported in Table 1.

[3] = Cytotoxicity assay CellTiter-Blue, HeLa; assay type: cell-based; conditions: human; HeLa cells, 4 to 8 days; mean ± SEM, three experiments
Description: as §4

For `C=C(C)[C@@H]1CC[C@]2(CCNC3CCN(CCOC)CC3)CC[C@]3(C)[C@H](CC[C@@H]4[C@@]5(C)CC[C@H](OC(=O)CC(C)(C)CC(=O)O)C(C)(C)[C@@H]5CC[C@]43C)[C@@H]12` [Compound 51g, (3β)-17-[2-[[1-(2-Methoxyethyl)piperadin-4-yl]amino]ethyl]-28-norlup-20(29)-en-3-ol, 3-(5-Hydrogen 3,3-Dimethylpentanedioate), Bis(trifluoroacetate) Salt], the IC50 (WT pNL4-3 in MT-4 cells) was 2 ± 0.5 nM, the IC50 [1] was 19 ± 6 nM and the “% CA-SP1 Accumulation 100 nM NL4-3” value (WT pNL4-3) was 85.0 (2) %. For the same molecule, the “% CA-SP1 Accumulation 100 nM SP1 V7A” value (pNL4-3 SP1-V7A) was 46.5 (3) %, the CC50 [2] was 406 ± 48 nM and the CC50 [3] was 551 ± 83 nM.
